≈ marks a conversion by molar mass, not a printed value.
Key:
[1] = test system: Human cytomegalovirus (HCMV), strain AD-169; experiment: In vitro human cytomegalovirus inhibition (plaque) assay in MRC-5 cells; format: cell-based
Source text: (§1) Cells MRC-5, an immortalized line of diploid, human ([…]) embryonic lung cells were used. These can be obtained from the American Type Culture Collection, Rockville, Md.
Virus Human cytomegalovirus (HCMV), strain AD-169 were used. These can be obtained from the American Type Culture Collection, Rockville, Md.
Medium Growth medium for the MRC-5 cells consisted of Basal Medium Eagle (BME) (GIBCO BRL, Research Products Division, Life Technologies, Inc., Grand Island, N.Y. was the source of all media) with 10% fetal bovine serum (FBS) (Hyclone Laboratories, Logan Utah), 0.035% NaHCO3. Antibiotics were not used in the growth media. Test medium for dilution of HCMV and for preparation and dilution of compounds for the experiments was DMEM, 2% FBS, 0.1% NaHCO3, 50 μg gentamicin/ml.
All compounds were prepared and diluted to the concentrations indicated in test medium. Growth medium was decanted from established monolayers of MRC-5 cells in 24-well tissue culture plates (Corning Glass Works, Corning, N.Y.). One ml of virus, diluted in test medium, was placed in each well except those to be used for cell controls. One ml of sterile test medium was placed in each of these cell control wells. Virus was allowed to adsorb to the cells while plates were centrifuged at 2200 rpm for 30 minutes at room temperature. Medium was aspirated from each well of the plates and 0.8 ml of the proper compound dilution was placed in each of the test wells (2 wells/dilution). Test medium without compound was added (0.8 ml/well) to each cell control and virus control well. Plates were placed in an incubator at 37° C. in a moist atmosphere of 5% CO2, 95% air until plaques could be distinguished in the virus control wells. […] After 15 minutes, the stain was aspirated, the plates were rinsed in running tap water until the water was clear, and the plates were inverted and dried at room temperature. Plaques were counted by use of a dissecting microscope.
ED50 and CD50 values were calculated by regression analysis of the viral plaque data and the visual cell toxicity data, respectively. […] CD50 is the concentration halfway between those at which 100% and 0% cytotoxicity are seen.

[2] = Visual cell toxicity in MRC-5 cells (HCMV assay); format: cell-based; conditions: human, previous data, read-out: CD50 (cytotoxicity)
Protocol: as §1
All compounds were prepared and diluted to the concentrations indicated in test medium. Growth medium was decanted from established monolayers of MRC-5 cells in 24-well tissue culture plates (Corning Glass Works, Corning, N.Y.). One ml of virus, diluted in test medium, was placed in each well except those to be used for cell controls. One ml of sterile test medium was placed in each of these cell control wells. Virus was allowed to adsorb to the cells while plates were centrifuged at 2200 rpm for 30 minutes at room temperature. Medium was aspirated from each well of the plates and 0.8 ml of the proper compound dilution was placed in each of the test wells (2 wells/dilution). Test medium without compound was added (0.8 ml/well) to each cell control and virus control well. Plates were placed in an incubator at 37° C. in a moist atmosphere of 5% CO2, 95% air until plaques could be distinguished in the virus control wells. […] Plaques were counted by use of a dissecting microscope.
ED50 and CD50 values were calculated by regression analysis of the viral plaque data and the visual cell toxicity data, respectively. […]

HSV-1 DNA polymerase = HSV-1 DNA polymerase (Human herpesvirus 1, UniProt P04293); experiment: HSV DNA polymerase assay, HSV-1; format: biochemical; conditions: activated calf thymus DNA, 30 minutes at 37° C.
HSV-1 DNA polymerase, sequence (P04293 whole entry): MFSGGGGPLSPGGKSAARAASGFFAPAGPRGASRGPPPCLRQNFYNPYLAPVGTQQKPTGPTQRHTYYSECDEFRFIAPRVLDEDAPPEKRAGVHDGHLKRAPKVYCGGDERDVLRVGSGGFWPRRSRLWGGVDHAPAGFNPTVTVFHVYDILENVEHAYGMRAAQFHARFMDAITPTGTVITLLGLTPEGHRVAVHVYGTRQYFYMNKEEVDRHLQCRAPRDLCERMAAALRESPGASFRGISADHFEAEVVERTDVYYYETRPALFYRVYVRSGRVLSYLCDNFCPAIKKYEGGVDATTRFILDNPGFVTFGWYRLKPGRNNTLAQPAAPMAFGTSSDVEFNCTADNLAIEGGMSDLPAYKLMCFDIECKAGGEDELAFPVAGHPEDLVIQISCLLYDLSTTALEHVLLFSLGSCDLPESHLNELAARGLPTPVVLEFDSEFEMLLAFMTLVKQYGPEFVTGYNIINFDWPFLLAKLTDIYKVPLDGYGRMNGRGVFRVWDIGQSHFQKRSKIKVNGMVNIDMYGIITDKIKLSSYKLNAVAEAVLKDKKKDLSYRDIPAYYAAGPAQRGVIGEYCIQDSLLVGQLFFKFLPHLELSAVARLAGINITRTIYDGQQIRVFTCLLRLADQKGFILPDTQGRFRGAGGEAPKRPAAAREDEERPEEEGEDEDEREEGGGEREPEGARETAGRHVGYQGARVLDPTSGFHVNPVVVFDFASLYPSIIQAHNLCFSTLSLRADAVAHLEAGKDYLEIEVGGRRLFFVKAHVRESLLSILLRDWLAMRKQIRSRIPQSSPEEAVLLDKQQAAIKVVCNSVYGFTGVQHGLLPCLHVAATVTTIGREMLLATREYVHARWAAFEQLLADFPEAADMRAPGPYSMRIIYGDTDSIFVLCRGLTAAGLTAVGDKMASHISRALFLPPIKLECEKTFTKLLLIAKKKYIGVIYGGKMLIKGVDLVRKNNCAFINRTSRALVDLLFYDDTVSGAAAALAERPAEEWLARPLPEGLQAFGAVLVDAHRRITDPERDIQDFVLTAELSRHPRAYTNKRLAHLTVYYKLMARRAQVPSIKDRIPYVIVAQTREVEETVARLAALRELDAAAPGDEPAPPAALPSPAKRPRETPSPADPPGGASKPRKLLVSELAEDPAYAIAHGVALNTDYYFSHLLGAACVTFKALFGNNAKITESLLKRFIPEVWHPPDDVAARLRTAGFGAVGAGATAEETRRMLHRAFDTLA
Protocol: (§2) HSV DNA polymerases were assayed as described by Ostrander M., and Cheng Y. C., (1980) BIOCHEM. BIOPHYS. ACTA 609:232-245. The standard assay mixture (total volume 50 uL) contained 25 mM Tris-HCl pH 8, 10 mM MgCl2, 0.5 mM dithiothreitol, 0.5 mg/mL BSA, 200 mM KCl, 100 ug/mL activated calf thymus DNA, 0.1 mM each dATP, dCTP, dGTP, 5 uM [^3 H]dTTP (2 Ci/mmol), 4-5×10-^4 units of enzyme, and different drug concentrations. After incubation at 37° C. for 30 minutes, the reaction mixture was spotted on 2.4 cm Whatman GF/A glass fiber filter discs and trichloroacetic acid-insoluble radioactivity was measured.
(§3) One unit of DNA polymerase activity is defined as the amount of enzyme which catalyzes the incorporation of 1 nanomol of dTMP into activated DNA/30 min. […] IC50 is that concentration (expressed in micromoles) of the novel oligonucleotide which results in 50% inhibition of the enzyme.

HSV-2 DNA polymerase = target: T1, HSV-2 DNA polymerase (Human herpesvirus 2, UniProt P89453); experiment: HSV DNA polymerase assay, HSV-2; format: biochemical; conditions: activated calf thymus DNA, 30 minutes at 37° C.
T1 sequence (P89453 1-1240): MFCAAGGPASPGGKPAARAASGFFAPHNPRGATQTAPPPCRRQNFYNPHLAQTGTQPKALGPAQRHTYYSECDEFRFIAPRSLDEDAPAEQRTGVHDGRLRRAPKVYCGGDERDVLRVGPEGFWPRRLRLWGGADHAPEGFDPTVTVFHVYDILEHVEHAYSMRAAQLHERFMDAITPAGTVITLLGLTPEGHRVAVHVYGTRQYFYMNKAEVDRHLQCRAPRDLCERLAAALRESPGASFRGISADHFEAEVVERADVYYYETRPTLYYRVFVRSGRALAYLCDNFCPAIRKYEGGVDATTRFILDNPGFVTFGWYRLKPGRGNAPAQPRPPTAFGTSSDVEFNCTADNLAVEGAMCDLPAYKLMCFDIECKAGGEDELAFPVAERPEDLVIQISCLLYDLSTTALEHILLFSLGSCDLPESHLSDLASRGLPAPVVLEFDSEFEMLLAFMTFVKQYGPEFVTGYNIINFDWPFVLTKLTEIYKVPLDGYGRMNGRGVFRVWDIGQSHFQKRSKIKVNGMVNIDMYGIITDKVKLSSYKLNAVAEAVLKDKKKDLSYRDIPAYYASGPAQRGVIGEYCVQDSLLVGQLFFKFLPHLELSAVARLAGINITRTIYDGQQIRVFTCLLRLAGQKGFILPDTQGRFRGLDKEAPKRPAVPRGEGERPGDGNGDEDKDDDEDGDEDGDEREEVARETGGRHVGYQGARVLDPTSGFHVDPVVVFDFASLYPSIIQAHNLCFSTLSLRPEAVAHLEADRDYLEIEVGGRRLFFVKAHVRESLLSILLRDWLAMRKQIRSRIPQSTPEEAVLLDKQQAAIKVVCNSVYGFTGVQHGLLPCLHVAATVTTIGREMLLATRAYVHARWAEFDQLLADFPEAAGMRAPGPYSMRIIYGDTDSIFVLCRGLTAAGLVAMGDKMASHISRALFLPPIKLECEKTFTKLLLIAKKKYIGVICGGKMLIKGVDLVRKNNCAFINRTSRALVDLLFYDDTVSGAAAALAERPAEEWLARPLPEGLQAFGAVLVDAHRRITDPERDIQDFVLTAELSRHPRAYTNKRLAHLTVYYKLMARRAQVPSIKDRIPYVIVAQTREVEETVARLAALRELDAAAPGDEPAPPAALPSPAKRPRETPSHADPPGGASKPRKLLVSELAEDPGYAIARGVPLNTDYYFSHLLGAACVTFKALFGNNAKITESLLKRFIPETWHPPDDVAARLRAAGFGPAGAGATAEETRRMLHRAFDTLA
Protocol: as §2, §3

[3] = target: T2, HIV-1 reverse transcriptase (RT) (Human immunodeficiency virus type 1 group M subtype B, UniProt P04585); experiment: HIV reverse transcriptase assay, HIV-1; format: biochemical; conditions: RNA-dependent enzyme assay, 30 minutes at 37° C.
T2 construct: as a 66 and 51 kDa protein dimer; made in house; host or cells: bacteria
Protocol: HIV-1 reverse transcriptase (RT) was expressed from a recombinant plasmid in bacteria as a 66 and 51 kDa protein dimer as described by D'Aquila R. T. and Summers W. C., (1989) J. ACQUIRED IMMUNE DEFIC SYNDR 2:579-587.
The standard reaction mixture for the RNA-dependent enzyme assays contained in a 50 uL volume: 50 mM Tris-HCl, pH 7.8, 50 mM KCl, 6 mM MgCl2, 0.1 mg/mL heat-inactivated bovine serum albumin, 1 mM dithiothreitol, 0.5 0D260 units/mL template-primer Poly(rC) oligo(dG)12-18, 10 uM [^3 H]dGTP and 3.3×10^-3 units of HIV-1 RT. A unit was defined as the amount of enzyme necessary to incorporate 1 nanomol of [^3 H]dTMP into the Poly(rA)-oligo(dT)10 template in 1.0 min at 37° C. The samples were incubated for 30 minutes at 37° C., and all reactions were carried out in the linear range. Aliquot of 40 uL were spotted on glass fiber filters (Whatman GF/A) and processed for determination of trichloroacetic acid-insoluble radioactivity as described by Cheng Y. C., Dutschman G. E., Bastow K. F., Sarngadharan M. G., and Ting R. Y. C. (1987) J. BIOL CHEM 262:2187-2189. Poly(rA)-oligo(dT)10was used as template-primer.
Table 4 indicates the results obtained in this assay with examplary oligonucleotides of the invention. The oligonucleotides are identified by their respective "compound number".

[4] = target: T3, HIV-2 reverse transcriptase (Human immunodeficiency virus type 2 subtype A, UniProt P04584); experiment: HIV reverse transcriptase assay, HIV-2; format: biochemical; conditions: RNA-dependent enzyme assay, 30 minutes at 37° C.
T3 construct: HIV REVERSE TRANSCRIPTASE ASSAY
T3 sequence (P04584 613-1171 limits assumed): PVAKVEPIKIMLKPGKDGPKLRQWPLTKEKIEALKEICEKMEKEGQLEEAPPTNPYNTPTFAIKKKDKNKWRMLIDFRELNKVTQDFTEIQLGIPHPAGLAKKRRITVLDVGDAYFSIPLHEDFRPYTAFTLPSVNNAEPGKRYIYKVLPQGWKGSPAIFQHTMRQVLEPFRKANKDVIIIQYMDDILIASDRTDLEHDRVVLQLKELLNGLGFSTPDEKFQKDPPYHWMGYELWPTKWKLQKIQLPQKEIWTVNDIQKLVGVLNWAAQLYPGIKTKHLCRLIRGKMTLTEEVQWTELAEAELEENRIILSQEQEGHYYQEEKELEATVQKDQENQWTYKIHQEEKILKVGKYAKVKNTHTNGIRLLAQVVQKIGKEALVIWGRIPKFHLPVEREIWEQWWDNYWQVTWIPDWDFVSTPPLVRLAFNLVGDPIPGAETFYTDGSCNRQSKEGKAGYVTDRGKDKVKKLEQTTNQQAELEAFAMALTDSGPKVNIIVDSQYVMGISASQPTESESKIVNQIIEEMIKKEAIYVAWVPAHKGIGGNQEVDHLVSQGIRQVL

Molecule: Nc1nc(O)c2ncn(COC(CO)CO)c2n1 [DHPG, Ganciclovir]
- # of plaques ([1]; 0.32 μg/ml): 39.5
- # of plaques ([1]; 1.0 μg/ml): 33.5
- # of plaques ([1]; 3.2 μg/ml): 10.5
- # of plaques ([1]; 10 μg/ml): 0.0
- Therapeutic Index TI = CD50/ED50 ([1]; HCMV, MRC-5 cells): > 588
- inhibition at 0.32 µg/mL ([1]; Human betaherpesvirus 5, AD169, MRC5, 0.32 μg/ml, read-out: % reduction (plaques)): 14%
- inhibition at 1 µg/mL ([1]; Human betaherpesvirus 5, AD169, MRC5, 1.0 μg/ml, read-out: % reduction (plaques)): 27%
- inhibition at 3.2 µg/mL ([1]; Human betaherpesvirus 5, AD169, MRC5, 3.2 μg/ml, read-out: % reduction (plaques)): 77%
- inhibition at 10 µg/mL ([1]; Human betaherpesvirus 5, AD169, MRC5, 10 μg/ml, read-out: % reduction (plaques)): 100%
- EC50 ([1]; Human betaherpesvirus 5, AD169, MRC5, regression analysis of viral plaque data, read-out: ED50 (plaques reduced to 50% of virus controls)): 1.7 µg/mL (≈ 6.66 µM)
- CC50 [2]: > 1000 µg/mL

Molecule: 5[dCyd3P(S)(O)]27dCyd [SdC28]
- IC50 (HSV-1 DNA polymerase): 30 nM
- IC50 (HSV-2 DNA polymerase): 90 nM
- IC50 [3]: 15 ± 4 nM
- IC50 [4]: 71 ± 11 nM
